Bridges are numbered along the chain shown (N, C = ends). Where no end group is shown, it is not given here.
Assays:
[1] = system: mouse NIH/3T3 dermal fibroblast cells; experiment: Cytotoxicity/proliferation assay (CCK-8) NIH/3T3; type: cell-based; conditions: TGF-β1 stimulated NIH/3T3, over 72 h
Description: HFL1 cells were cultured in Kaighn’s modified Ham’s F-12 (F-12K) medium (Sigma-Aldrich) containing NaHCO3 and HEPES buffered to pH 7. Cells were grown to confluence in T75 culture flasks in the presence of 10% fetal bovine serum (FBS; Gibco, Thermo Fisher Scientific, Waltham, MA, USA). HFL1 cells were subcultured using 0.05% trypsin at a ratio of 1:3. NIH/3T3 cells were cultured in Dulbecco’s Modified Eagle Medium (DMEM; HyClone, Thermo Fisher Scientific) containing 100 U/mL penicillin and 100 μg/mL streptomycin. Cells were grown to confluence in T75 culture flasks in the presence of 10% FBS. NIH/3T3 cells were subcultured using 0.05% trypsin/EDTA at a ratio of 1:3. All cells were maintained at 37 °C and 5% CO2, and growth medium was replenished every 3 days until experimentation. Cells were growth-arrested in serum-free medium for 48 h before experiments, and all experiments were performed under serum-free conditions using cells between passages 3 and 8.
Cells were seeded into 12-well culture plates at a density of 2.5 × 10^4 and when cultures reached 50% confluence, the culture medium was replaced with fresh serum-free F12K or serum-free DMEM/F12 for 48 h (growth arrest). […] Absorbance was measured at 450 nm wavelength using a Bio-Rad optical plate reader.

[2] = system: FAK in NIH/3T3 fibroblasts; experiment: Western blot FAK phosphorylation and total protein; type: cell-based, mouse; conditions: TGF-β1 10 ng/mL, AF38Pep 10 µg/mL
Description: Total protein was extracted from cells in RIPA lysis buffer containing 1% protease inhibitor cocktail, 1% phenylmethylsulfonyl fluoride, and 1% sodium orthovanadate (Santa Cruz Biotechnology, Santa Cruz, CA, USA). Protein was quantified by Micro BCA Protein Assay Kit (Thermo Fisher Scientific) before 7.5% SDS-PAGE and transfer to nitrocellulose. Membranes were blocked with 5% bovine serum albumin (BSA; Sigma-Aldrich)/0.5% Tween-20 (Sigma-Aldrich)/PBS for 1 h, RT, followed by incubation with primary antibodies diluted in 1% BSA/0.1% Tween-20/PBS, overnight at 4 °C. Primary antibodies were: anti-phosphoY204/Y187 ERK1/2 (1:1000); anti-ERK1/2 (1:1000); anti-phosphoY861 FAK (1:1000); anti-FAK (1:2000). Immunoblotting for anti-GAPDH (1:2500) was used as a protein loading control. Following wash steps, membranes were incubated in goat anti-rabbit IgG H&L secondary antibody (horseradish peroxidase, HRP conjugate, […]) (Abcam; 1:5000 dilution, 1% BSA/0.1% Tween-20/PBS). Detection was performed using Immobilon reagent (Merck Millipore, Burlington, MA, USA) and imaged using a Tanon 5500 Chemiluminescent Imaging System (Tanon, Shanghai, China).

[3] = system: Mmp9 mRNA in NIH/3T3 fibroblasts; experiment: qRT-PCR Mmp9 mRNA; type: cell-based, mouse; conditions: 48 h, TGF-β1 10 ng/mL
Description: (§1) Reverse transcription (RT) and real-time quantitative PCR (qRT-PCR) were used to assess ACTA2/Acta2, Col1a1, Col3a1, Fn1, Eda-Fn1, Mmp9, Tgfb1, Ltbp1, Hic5, and Mrtfa mRNA expressions. Custom PCR primers were designed in-house (Table 2) and then synthesized by BGI (Beijing, China). Cells were grown in 6-well culture plates and washed with phosphate buffered saline (PBS) before lysis with TRIzon Reagent (CWBio, Beijing, China) and total RNA purification according to the manufacturer’s protocol. Reverse transcription was carried using the TransScript First-Strand cDNA Synthesis SuperMix kit according to the manufacturer’s protocol (TransGen, Beijing, China), using the random primer method for the initiation of cDNA synthesis. Nuclease-free H2O replaced the RNA sample to serve as a negative control for the reverse transcription reaction. For qRT-PCR, 10 µL 2× TransStart Top Green qPCR SuperMix was added to each well of a 96-well PCR plate containing 0.4 µL forward primer, 0.4 µL reverse primer, […], and nuclease-free water to a total volume of 20 µL. The qRT-PCR reaction was completed using a CFX96 Real-Time PCR Detection System (Bio-Rad Laboratories, Hercules, CA, USA). Amplification used the following parameters: 94 °C for 30 s, followed by 40 cycles of 94 °C for 5 s, 55 °C for 15 s, 72 °C for 10 s, and then a dissociation stage (melt-curve). […]

Eda-Fn1 mRNA = experiment: qRT-PCR Eda-Fn1 mRNA; type: cell-based, mouse
Description: as §1

[4] = system: NIH/3T3 cells, total collagen; experiment: Hydroxyproline assay, total collagen synthesis; type: cell-based, mouse; conditions: 48 h, TGF-β1 + AF38Pep; % of cells that only received TGF-β1
Description: Approximately 4 × 10^6 of TGF-β1- and/or AF38Pep-treated NIH/3T3 fibroblast cells were harvested and homogenized in 1:1 conditioned medium to HCl (10N), before incubation at 120 °C for 24 h or until complete sample hydrolyzation. Cell-associated and soluble collagen contents were assessed using the Chondrex Hydroxyproline Assay kit (Chondrex, Redmond, WA, USA) according to the manufacturer’s protocol. In brief, 10 µL of sample, standard or blank control solution was added in duplicate to a 96-well clear-bottomed absorbance plate. Next, 100 µL of 1× chloramine-T solution was added to the wells and incubated at room temperature (RT) for 20 min. After incubation, 100 µL 1× DMAB solution was added to the wells and incubated at 60 °C for 30 min, with mild agitation at 5 min intervals. The plate O.D. values were read at 540 nm and sample values were compared to the values of the standard curve. The total collagen content was determined using the following equation:Collagen level (µg/mL) = Hydroxyproline level (µg/mL) × (100/13.5)

VMPYISTTPAKPCTSENCGNSWYGGFKSKNENKIYFIN (disulfide 13-18 (inferred)) [AF38Pep]
cytotoxicity/proliferation [1]: did not interfere with cell proliferation nor incur cell death | FAK phosphorylation ([2]; 1 h): significantly suppressed | FAK phosphorylation ([2]; 12 h): significantly less activation | total FAK protein ([2]; 12 h): marginally reduced | MMP9 mRNA expression [3]: attenuated | EDA-FN splice variant mRNA expression (Eda-Fn1 mRNA; 72 h, TGF-β1 + AF38Pep): all inhibited | EDA-FN splice variant mRNA expression (Eda-Fn1 mRNA; by 48 h, vs TGF-β1-only): significant attenuation | total collagen synthesis relative to TGF-β1 only [4]: approximately 60%
